Results reported in patent publication US7268108B2, “Alpha-melanocyte stimulating hormone derivatives and cosmetic application thereof” (Institut European de Biologie Cellulaire, priority 2002, dated 2007).
Entries after “also recorded” stand apart in the source; their conditions may differ. Where a SMILES comes first, the peptide text is derived from it. [ ]: non-standard residue; d: D form. Nle = CCCC[C@H](N)C(=O)O

System: cutaneous melanogenesis
Test: double-blind study of melanostimulant effects by topical administration in humans
Assay type: in vivo
Details: gel at 10 ppm, topical twice a day for 3 weeks, listed as peptide no. 1
Method: 2. A double-blind study of the melanostimulant effects by topical administration of peptide no. 1 in the table was carried out in humans.
A gel of peptide no. 1 at 10 ppm and its placebo were applied, twice a day for 3 weeks, to the inner face of the forearms of twelve normal volunteers who had given their informed consent. Since the arms were not exposed to the sun, they were given an exactly calibrated artificial solar exposure of 0.6 MED (minimum erythema dose) once a day from the 16th to 20th day.
24 h after the final treatment, a clinical evaluation of the treated regions was carried out blind, and the intensity of coloration was marked according to a five-level index scale. A biopsy sample was then taken in order to quantify the melanin produced and to evaluate the ultrastructural consequences of the treatment.
The quantification of the epidermal melanin was carried out on histological sections by image analysis after labeling with AgNO3. Only the active layers of the epidermis were analyzed (from the stratum germinativum to the stratum spinosum), using the Leica Quantimet after digitization (Sony CCD camera).
The ultrastructural analysis of the melanocytes and melanosomes was carried out by electron microscopy. A double-contrast technique was used on the thin sections, which were then observed at magnifications ranging up to ×12000 (Jeol 1200EX).

CCCC[C@H](NC(C)=O)C(=O)N[C@@H](C)C(=O)N[C@@H](Cc1c[nH]cn1)C(=O)N[C@H](Cc1ccccc1)C(=O)N[C@@H](CCCNC(=N)N)C(=O)N[C@@H](Cc1c[nH]c2ccccc12)C(N)=O [Compound 1, Ac-Nle-Ala-His-DPhe-Arg-Trp-NH2] (Ac-[Nle]AH[dF]RW-NH2)
local tolerance (clinical observation of the treated regions): no sign of intolerance; also recorded: completely tolerated at the local level
